Test results as given in ChEMBL document CHEMBL5113511, “Discovery of Small-Molecule Degraders of the CDK9-Cyclin T1 Complex for Targeting Transcriptional Addiction in Prostate Cancer” (J Med Chem, 2022).
Active and inactive are the calls of the source. No cut-off for these calls is given here.

Key:
Cyclin-T1 [1] = target: T1, Cyclin-T1 (Homo sapiens, UniProt O60563); test: Induction of HyT-mediated degradation of Cyclin T1 in human 22Rv1 cells at 0.3 to 3 uM incubated for 24 hrs by immunoblot analysis; assay type: cell-based; settings: dose 0.3-3 µM
Cyclin-T2 (Homo sapiens) = Cyclin-T2 (Homo sapiens) (UniProt O60583); test: Induction of HyT-mediated degradation of cyclin T2 in human 22Rv1 cells assessed as reduction in cyclin T2 level at 3 to 6 uM incubated for 24 hrs by immunoblot analysis; assay type: cell-based; settings: dose 3-6 µM
[2] = target: T2, Cyclin-dependent kinase 9 (Homo sapiens, UniProt P50750); test: Induction of Hyt-mediated degradation of CDK9 in human 22Rv1 cells assessed as downregulation of CDK9 level at 2 uM incubated for 24 hrs by DIA-based proteomics analysis; assay type: cell-based
[3] = target: T2, Cyclin-dependent kinase 9; test: Induction of Flag-tagged CDK9 (unknown origin) polyubiquitination expressed in HEK293T cells co-transfected with HA-tagged Cyclin T1 and Myc ubiquitin assessed as increase in K48-linkage poly-ubiqutinated CDK9 level at 1 to 2 uM incubated for 20 hrs by western blot analysis; assay type: cell-based; settings: dose 1-2 µM
Cyclin-T1 [4] = target: T1, Cyclin-T1; test: Induction of HyT-mediated degradation of Cyclin T1 in human 22Rv1 cells at 3 uM measured for 36 hrs by DIA-based proteomics analysis; assay type: cell-based
Cyclin-T1 [5] = target: T1, Cyclin-T1; test: Induction of HyT-mediated degradation of Cyclin T1 in human 22Rv1 cells assessed as reduction in Cyclin T1 protein level at 3 uM measured after 24 to 48 hrs by immunoblot analysis; assay type: cell-based; settings: time 24-48 hrs
[6] = target: Cyclin-dependent kinase 1 (Homo sapiens) (UniProt P06493); test: Induction of CDK1 degradation in human 22Rv1 cells assessed as downregulation of CDK1 level at 3 uM measured after 12 hrs by DIA-based proteomics analysis; assay type: cell-based
[7] = target: Cyclin-dependent kinase 4 (Homo sapiens) (UniProt P11802); test: Induction of CDK4 degradation in human 22Rv1 cells assessed as downregulation of CDK4 level at 3 uM measured after 12 hrs by DIA-based proteomics analysis; assay type: cell-based
[8] = target: Cyclin-dependent kinase 7 (Homo sapiens) (UniProt P50613); test: Induction of CDK7 degradation in human 22Rv1 cells assessed as downregulation of CDK7 level at 3 uM measured after 12 hrs by DIA-based proteomics analysis; assay type: cell-based
CWR22R [9] = test: Downregulation of CDK6 level in human 22Rv1 cells at 3 uM measured after 12 hrs by DIA-based proteomics analysis; assay type: functional, cell-based
[10] = target: T3, CDK9/cyclin T1 (Homo sapiens) (UniProt O60563+P50750); test: Induction of CDK9/Cyclin T1 degradation in human 22Rv1 cells assessed as decrease in cyclin A2 protein expression at 3 uM measured for 36 hrs by DIA-based proteomics analysis; assay type: cell-based
[11] = target: T3, CDK9/cyclin T1 (Homo sapiens); test: Induction of CDK9/Cyclin T1 degradation in human 22Rv1 cells assessed as decrease in cyclin D1 protein expression at 3 uM measured for 36 hrs by DIA-based proteomics analysis; assay type: cell-based
[12] = target: T3, CDK9/cyclin T1 (Homo sapiens); test: Induction of CDK9/Cyclin T1 degradation in human 22Rv1 cells assessed as decrease in cyclin C protein expression at 3 uM measured for 36 hrs by DIA-based proteomics analysis; assay type: cell-based
[13] = target: T3, CDK9/cyclin T1 (Homo sapiens); test: Induction of CDK9/Cyclin T1 degradation in human 22Rv1 cells assessed as downregulation of AR protein expression at 3 uM measured for 36 hrs by DIA-based proteomics analysis; assay type: cell-based
[14] = target: T3, CDK9/cyclin T1 (Homo sapiens); test: Induction of CDK9/Cyclin T1 degradation in human 22Rv1 cells assessed as downregulation of AR protein expression at 2 uM measured after 24 hrs by immunoblot analysis; assay type: cell-based
[15] = target: T3, CDK9/cyclin T1 (Homo sapiens); test: Induction of CDK9/Cyclin T1 degradation in human 22Rv1 cells assessed as downregulation of AR protein expression at 2 uM measured after 48 hrs by immunoblot analysis relative to control; assay type: cell-based
[16] = target: T3, CDK9/cyclin T1 (Homo sapiens); test: Induction of CDK9/Cyclin T1 degradation in human 22Rv1 cells assessed as downregulation of AR-V7 splice variant protein expression at 2 uM measured after 48 hrs by immunoblot analysis relative to control; assay type: cell-based
[17] = target: T3, CDK9/cyclin T1 (Homo sapiens); test: Induction of CDK9/Cyclin T1 degradation in human 22Rv1 cells assessed as downregulation of AR protein expression at 0.3 to 3 uM measured after 24 hrs by immunoblot analysis; assay type: cell-based; settings: dose 0.3-3 µM
CWR22R [18] = test: Induction of apoptosis in human 22Rv1 cells at 0.3 to 1 uM incubated for 24 hrs by AnnexinV-FITC/PI staining based flow cytometry; assay type: functional, cell-based; settings: dose 0.3-1 µM
[19] = target: T3, CDK9/cyclin T1 (Homo sapiens); test: Induction of CDK9/Cyclin T1 degradation in human 22Rv1 cells assessed as inhibition of Ser2 phosphorylation of RNA Pol II CTD at 0.3 to 3 uM incubated for 24 hrs by immunoblot analysis; assay type: cell-based; settings: dose 0.3-3 µM
[20] = target: T3, CDK9/cyclin T1 (Homo sapiens); test: Induction of CDK9/Cyclin T1 degradation in human 22Rv1 cells assessed as downregulation of NKX3-1 protein expression at 0.3 to 3 uM incubated fo 24 hrs by immunoblot analysis; assay type: cell-based; settings: dose 0.3-3 µM
[21] = target: T3, CDK9/cyclin T1 (Homo sapiens); test: Induction of CDK9/Cyclin T1 degradation in human 22Rv1 cells assessed as downregulation of KLK3 protein expression at 0.3 to 3 uM incubated fo 24 hrs by immunoblot analysis; assay type: cell-based; settings: dose 0.3-3 µM
[22] = target: T3, CDK9/cyclin T1 (Homo sapiens); test: Induction of CDK9/Cyclin T1 degradation in human 22Rv1 cells assessed as downregulation of NAT1 gene expression at 2 uM incubated for 24 hrs by RNA-Seq based analysis; assay type: cell-based
[23] = target: T3, CDK9/cyclin T1 (Homo sapiens); test: Induction of CDK9/Cyclin T1 degradation in human 22Rv1 cells assessed as downregulation of CDK20 gene expression at 2 uM incubated for 24 hrs by RNA-Seq based analysis; assay type: cell-based
[24] = target: T3, CDK9/cyclin T1 (Homo sapiens); test: Induction of CDK9/Cyclin T1 degradation in human 22Rv1 cells assessed as downregulation of VIM gene expression at 2 uM incubated for 24 hrs by RNA-Seq based analysis; assay type: cell-based
[25] = target: T3, CDK9/cyclin T1 (Homo sapiens); test: Induction of CDK9/Cyclin T1 degradation in human 22Rv1 cells assessed as downregulation of BTG1 gene expression at 2 uM incubated for 24 hrs by RNA-Seq based analysis; assay type: cell-based
[26] = target: T3, CDK9/cyclin T1 (Homo sapiens); test: Induction of CDK9/Cyclin T1 degradation in human 22Rv1 cells assessed as downregulation of KLK2 gene expression at 2 uM incubated for 24 hrs by RNA-Seq based analysis; assay type: cell-based
[27] = target: T3, CDK9/cyclin T1 (Homo sapiens); test: Induction of CDK9/Cyclin T1 degradation in human 22Rv1 cells assessed as downregulation of KLK15 gene expression at 2 uM incubated for 24 hrs by RNA-Seq based analysis; assay type: cell-based
[28] = target: T3, CDK9/cyclin T1 (Homo sapiens); test: Induction of CDK9/Cyclin T1 degradation in human 22Rv1 cells assessed as downregulation of MYCL gene expression at 2 uM incubated for 24 hrs by RNA-Seq based analysis; assay type: cell-based
[29] = target: T3, CDK9/cyclin T1 (Homo sapiens); test: Induction of CDK9/Cyclin T1 degradation in human 22Rv1 cells assessed as downregulation of ZNF517 gene expression at 2 uM incubated for 24 hrs by RNA-Seq based analysis; assay type: cell-based
[30] = target: T3, CDK9/cyclin T1 (Homo sapiens); test: Induction of CDK9/Cyclin T1 degradation in human 22Rv1 cells assessed as downregulation of TP53 gene expression at 2 uM incubated for 24 hrs by RNA-Seq based analysis; assay type: cell-based

T1 sequence (O60563 whole entry): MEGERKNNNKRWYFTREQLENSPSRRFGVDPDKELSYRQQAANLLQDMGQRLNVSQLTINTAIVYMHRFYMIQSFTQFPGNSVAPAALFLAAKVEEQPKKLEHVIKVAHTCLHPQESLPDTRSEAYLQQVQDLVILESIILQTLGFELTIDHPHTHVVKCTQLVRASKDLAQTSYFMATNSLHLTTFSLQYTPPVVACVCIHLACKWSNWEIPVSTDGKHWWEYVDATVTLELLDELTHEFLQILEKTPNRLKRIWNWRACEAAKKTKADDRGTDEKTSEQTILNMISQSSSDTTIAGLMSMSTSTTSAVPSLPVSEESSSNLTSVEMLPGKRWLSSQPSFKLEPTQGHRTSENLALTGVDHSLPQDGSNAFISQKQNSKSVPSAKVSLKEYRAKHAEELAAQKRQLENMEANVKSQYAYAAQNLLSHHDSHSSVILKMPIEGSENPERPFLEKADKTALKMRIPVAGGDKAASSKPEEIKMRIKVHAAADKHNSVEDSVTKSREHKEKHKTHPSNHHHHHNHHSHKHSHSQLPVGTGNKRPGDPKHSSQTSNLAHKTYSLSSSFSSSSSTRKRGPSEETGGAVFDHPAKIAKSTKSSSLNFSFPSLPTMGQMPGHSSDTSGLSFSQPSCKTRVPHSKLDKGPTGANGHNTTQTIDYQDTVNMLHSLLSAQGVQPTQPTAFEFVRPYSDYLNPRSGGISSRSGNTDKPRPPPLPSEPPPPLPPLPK
T2 sequence (P50750 whole entry): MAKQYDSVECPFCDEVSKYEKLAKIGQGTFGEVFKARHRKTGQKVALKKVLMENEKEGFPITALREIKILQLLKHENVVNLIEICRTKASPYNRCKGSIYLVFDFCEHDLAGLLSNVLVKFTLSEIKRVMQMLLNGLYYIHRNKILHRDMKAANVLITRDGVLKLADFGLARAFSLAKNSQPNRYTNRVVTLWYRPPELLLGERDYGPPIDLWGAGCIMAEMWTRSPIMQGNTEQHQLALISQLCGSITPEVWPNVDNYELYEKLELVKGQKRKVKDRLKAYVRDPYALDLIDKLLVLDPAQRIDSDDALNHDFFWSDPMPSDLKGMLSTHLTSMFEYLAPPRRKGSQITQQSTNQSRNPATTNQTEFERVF
Sequence of Cyclin-dependent kinase 1 (Homo sapiens) (P06493 whole entry, looked up): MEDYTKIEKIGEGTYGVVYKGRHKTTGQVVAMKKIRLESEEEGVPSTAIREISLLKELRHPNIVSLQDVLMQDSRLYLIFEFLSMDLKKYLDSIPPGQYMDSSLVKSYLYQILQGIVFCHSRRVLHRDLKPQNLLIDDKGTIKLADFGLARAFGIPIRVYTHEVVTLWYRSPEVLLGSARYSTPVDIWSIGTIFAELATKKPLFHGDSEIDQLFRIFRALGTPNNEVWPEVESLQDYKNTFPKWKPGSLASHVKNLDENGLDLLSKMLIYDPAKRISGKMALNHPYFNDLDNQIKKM
Sequence of Cyclin-dependent kinase 7 (Homo sapiens) (P50613 whole entry): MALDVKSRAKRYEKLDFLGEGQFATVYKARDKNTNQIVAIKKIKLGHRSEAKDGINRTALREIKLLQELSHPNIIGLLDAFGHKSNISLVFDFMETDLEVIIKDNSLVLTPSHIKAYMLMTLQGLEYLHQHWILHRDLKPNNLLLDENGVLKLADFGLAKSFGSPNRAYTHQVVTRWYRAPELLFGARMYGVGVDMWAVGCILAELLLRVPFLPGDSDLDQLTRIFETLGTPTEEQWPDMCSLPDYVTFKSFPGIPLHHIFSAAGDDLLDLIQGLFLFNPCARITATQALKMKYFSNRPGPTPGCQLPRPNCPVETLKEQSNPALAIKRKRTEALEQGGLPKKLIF
Sequence of Cyclin-dependent kinase 4 (Homo sapiens) (P11802 whole entry): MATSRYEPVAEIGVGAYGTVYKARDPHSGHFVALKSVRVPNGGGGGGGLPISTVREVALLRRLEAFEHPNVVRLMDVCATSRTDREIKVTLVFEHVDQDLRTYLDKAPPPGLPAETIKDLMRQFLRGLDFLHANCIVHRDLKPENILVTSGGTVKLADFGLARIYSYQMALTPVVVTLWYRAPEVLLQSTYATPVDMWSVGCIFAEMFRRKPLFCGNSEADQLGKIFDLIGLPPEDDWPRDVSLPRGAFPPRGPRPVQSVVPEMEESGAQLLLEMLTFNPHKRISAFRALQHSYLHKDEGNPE
Sequence of Cyclin-T2 (Homo sapiens) (O60583 whole entry): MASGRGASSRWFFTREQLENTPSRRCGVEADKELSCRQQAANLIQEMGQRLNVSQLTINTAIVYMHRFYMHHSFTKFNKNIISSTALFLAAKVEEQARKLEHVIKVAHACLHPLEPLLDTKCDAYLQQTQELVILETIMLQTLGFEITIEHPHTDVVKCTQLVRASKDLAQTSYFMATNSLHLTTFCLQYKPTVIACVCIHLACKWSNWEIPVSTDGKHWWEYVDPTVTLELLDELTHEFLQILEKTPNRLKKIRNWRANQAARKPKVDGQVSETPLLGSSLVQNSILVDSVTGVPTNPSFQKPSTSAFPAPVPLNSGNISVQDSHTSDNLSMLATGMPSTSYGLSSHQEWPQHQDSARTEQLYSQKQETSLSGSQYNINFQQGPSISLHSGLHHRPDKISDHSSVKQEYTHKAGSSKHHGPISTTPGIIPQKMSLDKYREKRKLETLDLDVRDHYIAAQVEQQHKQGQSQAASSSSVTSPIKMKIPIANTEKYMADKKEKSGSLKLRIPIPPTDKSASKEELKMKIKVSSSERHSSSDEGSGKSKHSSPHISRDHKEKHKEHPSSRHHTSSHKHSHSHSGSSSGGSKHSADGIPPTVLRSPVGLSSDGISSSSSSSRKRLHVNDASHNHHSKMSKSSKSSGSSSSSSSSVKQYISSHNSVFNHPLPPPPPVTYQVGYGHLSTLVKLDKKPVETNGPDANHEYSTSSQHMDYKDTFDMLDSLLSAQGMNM

Q: Which Activity (Cyclin-T1 [1]) does the source give for CC(C)[C@@H]1CC[C@@H](C)C[C@H]1OCC(=O)NCCS(=O)(=O)N1CCC(C(=O)Nc2ncc(SCc3ncc(C(C)(C)C)o3)s2)CC1 here?
A: The Activity was “Active”.

Q: What about the Activity (Cyclin-T2 (Homo sapiens)) of the same compound?
A: The Activity was “Active”.

Q: What about the Activity [2] of the same compound?
A: The Activity was “Active”.

Q: And the Activity [3]?
A: Its Activity is “Active”.

Q: And the Activity (Cyclin-T1 [4])?
A: The Activity was “Active”.

Q: What about the Activity (Cyclin-T1 [5]) of the same compound?
A: The Activity was “Active”.

Q: And the Activity [6]?
A: Its Activity is “Active”.

Q: What about the Activity [7] of the same compound?
A: Its Activity is “Active”.

Q: And the Activity [8]?
A: Its Activity is “Active”.

Q: And the inhibition (CWR22R [9])?
A: The inhibition was “Active”.

Q: What about the Activity [10] of the same compound?
A: Its Activity is “Active”.

Q: And the Activity [11]?
A: The Activity was “Active”.

Q: What about the Activity [12] of the same compound?
A: Its Activity is “Active”.

Q: And the Activity [13]?
A: The Activity was “Active”.

Q: And the Activity [14]?
A: The Activity was “Active”.

Q: And the Activity [15]?
A: Its Activity is 100%.

Q: What about the Activity [16] of the same compound?
A: Its Activity is 100%.

Q: And the Activity [17]?
A: The Activity was “Active”.

Q: And the Activity (CWR22R [18])?
A: The Activity was “Active”.

Q: What about the Activity [19] of the same compound?
A: The Activity was “Active”.

Q: What about the Activity [20] of the same compound?
A: Its Activity is “Active”.

Q: And the Activity [21]?
A: Its Activity is “Active”.

Q: What about the Activity [22] of the same compound?
A: Its Activity is “Active”.

Q: And the Activity [23]?
A: The Activity was “Active”.

Q: And the Activity [24]?
A: Its Activity is “Active”.

Q: And the Activity [25]?
A: Its Activity is “Active”.

Q: And the Activity [26]?
A: Its Activity is “Active”.

Q: What about the Activity [27] of the same compound?
A: Its Activity is “Active”.

Q: And the Activity [28]?
A: The Activity was “Active”.

Q: And the Activity [29]?
A: Its Activity is “Active”.

Q: What about the Activity [30] of the same compound?
A: The Activity was “Active”.
